Reference: patent US10189860B2, “Hydrates of dolutegravir sodium” (LEK PHARMACEUTICALS D.D., priority 2014, dated 2019)
Values joined by “and” are separate entries in the source; they are usually repeats but may differ in a detail not shown here. Identical values can stand only once. “Also recorded” adds a separate entry of the source.

Legend:
[1] = Gravimetric moisture sorption/desorption (GMSD) experiments; assay type: physicochemical; details: 25±0.1° C.
Method: Comparative gravimetric moisture sorption/desorption experiments at 25±0.1° C. were conducted with dolutegravir sodium monohydrate of WO 2010/068253 A1 and the hydrates of the present invention designated form HxA and form Hy1B.
The water values at varying relative humidities were obtained by recording moisture sorption/desorption isotherms with a SPS-11 moisture sorption analyzer (MD Messtechnik, Ulm, D). The samples were weighed into Teflon sample holders. […] The equilibrium condition for each step was set to a mass constancy of ±0.005% over 60 min. The temperature was 25±0.1° C. The water content of the samples was determined after the moisture sorption/desorption experiments with a TGA 7 system (Perkin Elmer, Norwalk, Conn., USA) using the Pyris 2.0 software. The samples were weighed into Al pans (50 μL). Dry nitrogen was used as purge gas (purge rate: 20 mL/min). The samples were heated from 25 to 200° C. using a heating rate of 10° C./min.

[2] = Compressibility testing of API (bulk/tapped volume, compressibility index); assay type: physicochemical; details: API batches; for Compressibility index: (Vb−Vt)/Vb; for Flow character according to PhEur: PhEur Chapter 2.9.36 Powder flow
Method: As described in Example 8 herein above, the sodium salt of dolutegravir was prepared in two polymorphic forms (Form I and form HxA). […] Compressibilty index is an indirect measure of different powder properties such as size, shape, surface area, cohesiveness etc. (PhEur). Bulk (Vb) and tapped (Vt) volume were measured for several batches of both forms and the compressibilty index (%) is determined based on Vb and Vt. 250 mL volumetric cylinder with test samples weight approximately 25 g were used. The compressibility index was calculated according to formula ((Vb−Vt)/Vb).

[3] = API particle size by laser diffraction
[4] = Particle morphology by scanning electron micrograph; assay type: physicochemical; details: SEM
From the text: A figure of the morphology of Form I and form HxA is depicted in FIG. 13 (Form I) and 14 (form HxA), at different magnifications (500× magnification (Form I), 1.500× magnification (Form I and form HxA), and 5.000× magnification (form HxA)).

[5] = listed as dolutegravir sodium monohydrate of WO 2010/068253 A1
[6] = 95% RH, listed as dolutegravir sodium monohydrate of WO 2010/068253 A1

| SMILES | Remarks: stable at / preserves crystal structure (RH range) [1] | Δm sorption [0-90% RH] [1] | Δm sorption [30-90% RH] [1] | Bulk volume [2] | Tapped volume [2] | Compressibility index [2] | Flow character according to PhEur [2] | d0.1 [3] [μm] | d0.5 [3] [μm] | d0.9 [3] [μm] | Remarks: hysteresis between sorption and desorption isotherms [1] | morphology of particles [4] | other results |
| --- | --- | --- | --- | --- | --- | --- | --- | --- | --- | --- | --- | --- | --- |
| C[C@@H]1CCO[C@H]2Cn3cc(C(=O)NCc4ccc(F)cc4F)c(=O)c([O-])c3C(=O)N12.[Na+] [MH of WO 2010/068253, reference compound] | stable at 30-60% RH, | +14.0% | +10.7% | – | – | – | – | – | – | – | – | – | Remarks: dehydration below [1]: dehydration below 30% RH,; Remarks: hysteresis at (RH range) [1]: hysterises at 40-95% RH; Remarks: dehydration below [1, 5]: Below 30 % RH; hygroscopicity [1, 5]: very hygroscopic; maximum water content [1, 6]: about 21.8%; mol of water per mol of dolutegravir sodium [1, 6]: 5.6 mol of water per mol of dolutegravir sodium |
| C[C@@H]1CCO[C@H]2Cn3cc(C(=O)NCc4ccc(F)cc4F)c(=O)c([O-])c3C(=O)N12.[Na+] [Form HxA, sodium (4R,12aS)-9-((2,4-difluorobenzyl)carbamoyl)-4-methyl-6,8-dioxo-3,4,6,8,12,12a-hexahydro-2H-pyrido[1′,2′:4,5]pyrazino[2,1-b][1,3]oxazin-7-olate] | stable at 0-95% RH | +3.4% | +2.5% | 4.02 mL/g and 2.88 mL/g and 3.30 mL/g and 2.89 mL/g | 2.86 mL/g and 2.14 mL/g and 2.60 mL/g and 2.25 mL/g | 29% and 26% and 21% and 22% | Poor and Passable | 1.3 | 3.1 | 7.4 | no significant hysterises | thin-plate like morphology | Compressibility index ([2]; listed as HxA form): 22-29%; Flow character according to PhEur ([2]; listed as HxA form): “poor” to “passable”; Particle size ([3]; achieved with crystallization only): below 10 μm; Remarks: structural changes [1]: no structural changes observed; Remarks: hysteresis between sorption and desorption isotherms ([1]; listed as form HxA): absence of a hysteresis; hygroscopicity ([1]; listed as form HxA): significantly less hygroscopic than the monohydrate of WO 2010/068253 A1; maximum water content ([1]; 95% RH): about 3.8%; mol of water per mol of dolutegravir sodium ([1]; 95% RH): 0.9 mol of water per mol of dolutegravir sodium; maximum water content ([1]; 95% RH, listed as form HxA): 3.9%; mol of water per mol of dolutegravir sodium ([1]; about 30% RH): 0.2 mol of water per mol of dolutegravir sodium; water content ([1]; about 30% RH): about 0.9%; mol of water per mol of dolutegravir sodium ([1]; about 70% RH): 0.7 mol of water per mol of dolutegravir sodium; particle sizes (primary particles) [4]: about 5 μm; morphology of particles ([4]; listed as HxA form): thin-plate like morphology |
| C[C@@H]1CCO[C@H]2Cn3cc(C(=O)NCc4ccc(F)cc4F)c(=O)c([O-])c3C(=O)N12.[Na+] [Form Hy1B, sodium (4R,12aS)-9-((2,4-difluorobenzyl)carbamoyl)-4-methyl-6,8-dioxo-3,4,6,8,12,12a-hexahydro-2H-pyrido[1′,2′:4,5]pyrazino[2,1-b][1,3]oxazin-7-olate] | – | +4.8% | +2.4% | – | – | – | – | – | – | – | absence of a significant hysteresis; also recorded: no significant hysterises | – | hygroscopicity [1]: significantly less hygroscopic than the monohydrate of WO 2010/068253 A1; mol of water per mol of dolutegravir sodium ([1]; 90% RH): 1.3 mol of water per mol of dolutegravir sodium |
| C[C@@H]1CCO[C@H]2Cn3cc(C(=O)NCc4ccc(F)cc4F)c(=O)c([O-])c3C(=O)N12.[Na+] [Form I, reference compound] | – | – | – | 5.55 mL/g and 7.00 mL/g and 4.89 mL/g | 3.79 mL/g and 4.56 mL/g and 3.23 mL/g | 32% and 35% and 34% | Very poor | 3.5 | 10 | 40 | – | long needle like crystals | needle lengths [4]: ≤ 70 μm |
